Measured values as given in paper PMC8151276, “An Integrated Approach toward NanoBRET Tracers for Analysis of GPCR Ligand Engagement” (Molecules, 2021).
One block for each compound: values may come before it.

What was measured:
Assay type in all cases: binding
ACKR3 = molecular target: T1, ACKR3 (Homo sapiens, UniProt P25106); test: NanoBRET screen HiBiT-ACKR3 in HEK293
T1 construct: purchased Promega (in-house HiBiT-GPCR construct library, NanoBRET)
Description: (§1) Each tracer candidate was screened across the entire library of HiBiT-GPCR constructs using NanoBRET as the detection modality. As depicted in Figure 4A, the specificity of interactions was evaluated through decrease in BRET due to competitive displacement of a bound tracer by excess parental compound. Each tracer was analyzed for binding to each HiBiT-GPCR fusion in the absence and in the presence of competing parental compound. Briefly, HEK293 cells were transfected with HiBiT-GPCR constructs diluted into promoterless DNA to reduce expression and maximize translocation to the cell surface. Each tracer candidate was then screened at concentrations of 1 μM and 0.1 μM across cells expressing these fusions. Cells were treated for 1.5 h with tracer either alone or in the presence of 20 μM competing parental compound (i.e., control). BRET was measured upon addition of purified LgBiT and subsequent complementation with HiBiT genetically fused to a GPCR. The specificity of interactions was assessed through a decrease in BRET signal due to competitive displacement of the bound tracer. To further gauge the robustness of these interactions, the fold response over the control (i.e., BRETtracer/BRETcontrol) was calculated. We chose a 1.5-fold response, which translates to ≥7-fold signal over noise as the minimal threshold required to score an interaction as positive. […]. Below we highlight the screening results obtained for our exemplary fluorescent tracers based on Clozapine, Amitriptyline and AZD1283.
(§2) HiBiT-GPCR DNA constructs were diluted in 10 mM Tris pH 8 to a final concentration of 0.01 μg/μL, arrayed in 96-well plates and stored at −20 °C. For transfection, HEK293 cells were suspended in Opti-MEM (without phenol red) supplemented with 2% fetal bovine serum (Seradigm) and 100 units/mL penicillin–streptomycin (Gibco) at a final concentration of 220,000 cells/mL and dispensed into white 96-well plates at 90 μL/well. Subsequent transfections and screens were carried using an Agilent Bravo Automated Liquid Handling Platform. First, the 96-well HiBiT DNA arrays were diluted 25-fold in Opti-MEM (without serum or phenol red) to a final concentration of 0.0004 μg/μL and 20 μL of the diluted DNAs were transferred into new 96-well plates. Next, promoterless carrier DNA (1 μg/μL) was diluted 25-fold (0.04 μg/μL) and then dispensed into the diluted arrays at 20 μL/well. Following brief mixing, Viafect transfection reagent (Promega) diluted 16-fold into Opti-MEM was dispensed into the plates at 40 μL/well. After mixing by pipetting, plates were incubated for 10 min on the pipetting station deck. The DNA-transfection reagent complexes were then added to plates containing cells. To facilitate the screen, 10 μL of DNA-transfection reagent complexes were added in duplicates to the top 4 and bottom 4 rows, resulting in two identical 48-well arrays per plate. Plates with transfected cells were incubated for 18–20 h at 37 °C/5% CO2. A screen of each tracer across the entire library using two different concentrations requires duplicate plates of transfected cells. Depending on the number of tracers being screened, transfections can be scaled up using the same ratios. The next day, for each tracer, four 20× screening solutions in tracer dilution buffer (Promega) were prepared: two duplicates at final concentration of 20 μM and two duplicates at a final concentration of 2 μM. A competing unmodified compound was added to one of each duplicate at a final concentration of 400 μM. The four resulting solutions were diluted 4-fold in Opti-MEM without serum or phenol red to generate 5× solutions (5 µM and 0.5 µM tracer +/− 100 μM competing compound). To screen the library, a BioTek MultiFlo FX liquid dispenser was used to dispense 22.5 µL of tracer solution to the top 4 rows and 22.5 µL tracer + competing compound solution to the 4 bottom rows. Plates were briefly mixed on an orbital shaker and incubated for 1.5 h at room temperature. […]

GRM8 = molecular target: T2, GRM8 (Homo sapiens, UniProt O00222); test: NanoBRET screen HiBiT-GRM8 in HEK293
T2 construct: purchased Promega (in-house HiBiT-GPCR construct library, NanoBRET)
Description: as §1, §2

LHCGR = molecular target: T3, LHCGR (Homo sapiens, UniProt P22888); test: NanoBRET screen HiBiT-LHCGR in HEK293
T3 construct: purchased Promega (in-house HiBiT-GPCR construct library, NanoBRET)
Description: as §1, §2

T3 sequence (P22888 27-699): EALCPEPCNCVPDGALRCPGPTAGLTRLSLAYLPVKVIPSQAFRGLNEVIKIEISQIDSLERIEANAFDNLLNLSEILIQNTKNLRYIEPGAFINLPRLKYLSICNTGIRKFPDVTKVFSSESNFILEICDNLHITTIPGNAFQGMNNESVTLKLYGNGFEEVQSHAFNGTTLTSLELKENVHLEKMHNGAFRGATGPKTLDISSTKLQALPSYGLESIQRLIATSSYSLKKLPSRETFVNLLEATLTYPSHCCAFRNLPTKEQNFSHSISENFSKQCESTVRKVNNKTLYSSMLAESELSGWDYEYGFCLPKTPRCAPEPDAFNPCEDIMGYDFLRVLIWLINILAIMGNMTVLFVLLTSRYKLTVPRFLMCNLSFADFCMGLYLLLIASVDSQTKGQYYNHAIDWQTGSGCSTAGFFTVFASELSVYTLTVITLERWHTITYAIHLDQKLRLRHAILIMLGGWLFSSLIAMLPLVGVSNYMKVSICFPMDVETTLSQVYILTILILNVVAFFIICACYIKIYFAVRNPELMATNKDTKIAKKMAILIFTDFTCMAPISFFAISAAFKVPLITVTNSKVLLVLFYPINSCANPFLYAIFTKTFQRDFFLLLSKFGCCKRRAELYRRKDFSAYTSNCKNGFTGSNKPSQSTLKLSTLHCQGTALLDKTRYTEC
T2 sequence (O00222 34-908): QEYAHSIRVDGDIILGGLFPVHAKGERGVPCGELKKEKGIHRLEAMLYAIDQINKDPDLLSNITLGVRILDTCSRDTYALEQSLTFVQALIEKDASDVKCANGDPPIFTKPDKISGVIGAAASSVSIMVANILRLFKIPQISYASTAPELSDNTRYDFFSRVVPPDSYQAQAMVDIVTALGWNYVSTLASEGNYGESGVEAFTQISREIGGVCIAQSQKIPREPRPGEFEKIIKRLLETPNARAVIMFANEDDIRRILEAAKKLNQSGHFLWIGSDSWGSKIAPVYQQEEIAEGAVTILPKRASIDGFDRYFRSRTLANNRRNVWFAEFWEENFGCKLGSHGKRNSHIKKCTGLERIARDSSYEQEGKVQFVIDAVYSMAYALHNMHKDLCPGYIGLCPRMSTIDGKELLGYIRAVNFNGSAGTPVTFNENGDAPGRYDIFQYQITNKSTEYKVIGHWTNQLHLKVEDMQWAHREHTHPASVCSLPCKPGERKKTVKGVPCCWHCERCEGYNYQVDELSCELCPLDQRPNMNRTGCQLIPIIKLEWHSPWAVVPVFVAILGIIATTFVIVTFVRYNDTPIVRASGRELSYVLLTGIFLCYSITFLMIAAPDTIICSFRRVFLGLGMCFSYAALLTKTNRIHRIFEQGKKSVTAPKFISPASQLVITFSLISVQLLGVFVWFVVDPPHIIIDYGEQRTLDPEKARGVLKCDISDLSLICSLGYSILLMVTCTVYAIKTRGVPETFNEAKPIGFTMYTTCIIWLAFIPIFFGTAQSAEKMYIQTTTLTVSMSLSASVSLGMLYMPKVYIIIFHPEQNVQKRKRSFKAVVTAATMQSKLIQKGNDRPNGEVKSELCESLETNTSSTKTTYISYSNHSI
T1 sequence (P25106 whole entry): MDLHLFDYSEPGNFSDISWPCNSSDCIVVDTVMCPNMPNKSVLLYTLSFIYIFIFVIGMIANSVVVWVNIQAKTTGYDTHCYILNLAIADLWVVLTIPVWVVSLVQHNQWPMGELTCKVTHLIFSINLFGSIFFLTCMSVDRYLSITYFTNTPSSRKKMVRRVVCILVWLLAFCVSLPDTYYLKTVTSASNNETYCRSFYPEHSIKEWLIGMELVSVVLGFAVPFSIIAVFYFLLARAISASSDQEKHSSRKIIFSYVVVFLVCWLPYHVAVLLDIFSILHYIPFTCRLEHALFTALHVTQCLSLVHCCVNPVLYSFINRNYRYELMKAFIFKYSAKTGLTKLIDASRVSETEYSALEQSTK

NanoBRET Fold Response (ACKR3; 0.1μM tracer): 0.84 | NanoBRET Fold Response (ACKR3; 1μM tracer): 0.95 | NanoBRET Fold Response (GRM8; 0.1μM tracer): 0.96 | NanoBRET Fold Response (GRM8; 1μM tracer): 0.95 | NanoBRET Fold Response (LHCGR; 0.1μM tracer): 1.03 | NanoBRET Fold Response (LHCGR; 1μM tracer): 1.05
Structure (SMILES): COc1ccc2c(n1)c(CCNC(C)=O)cn2CCNC(=O)CCc1ccc2n1[B-](F)(F)[N+]1=C(c3ccc[nH]3)C=CC1=C2 [Azamelatonin-1-NB590]

Structure (SMILES): CC(C)N(CC[C@H](c1ccccc1)c1cc(CCNC(=O)c2ccc(CNC(=O)CCc3ccc4n3[B-](F)(F)[N+]3=C(c5ccc[nH]5)C=CC3=C4)cc2)ccc1O)C(C)C [Tolterodine-BZ-NB590]
NanoBRET Fold Response (ACKR3; ACKR3, tracer 0.1μM): 0.88 | NanoBRET Fold Response (ACKR3; ACKR3, tracer 1μM): 0.96 | NanoBRET Fold Response (GRM8; GRM8, tracer 0.1μM): 1.02 | NanoBRET Fold Response (GRM8; GRM8, tracer 1μM): 1.03 | NanoBRET Fold Response (LHCGR; LHCGR, tracer 0.1μM): 0.98 | NanoBRET Fold Response (LHCGR; LHCGR, tracer 1μM): 1.05

Structure (SMILES): CN1CCN(C2=Nc3cc(Cl)ccc3Nc3ccc(CNC(=O)CCOCCOCCOCCOCCNC(=O)CCc4ccc5n4[B-](F)(F)[N+]4=C(c6ccc[nH]6)C=CC4=C5)cc32)CC1 [Clozapine-b-2-NB590]
NanoBRET Fold Response (ACKR3; ACKR3, 0.1μM tracer): 0.95 | NanoBRET Fold Response (ACKR3; ACKR3, 1μM tracer): 1.05 | NanoBRET Fold Response (GRM8; GRM8, 0.1μM tracer): 1.01 | NanoBRET Fold Response (GRM8; GRM8, 1μM tracer): 1.02 | NanoBRET Fold Response (LHCGR; LHCGR, 0.1μM tracer): 1.06 | NanoBRET Fold Response (LHCGR; LHCGR, 1μM tracer): 0.99
